Results from patent US20170296682A1, “DERIVATIVES OF DIBENZOTHIOPHENE IMAGING OF alpha-7 NICOTINIC ACETYLCHOLINE RECEPTORS” (THE JOHNS HOPKINS UNIVERSITY, priority 2015, published 2017).
Where “and” joins values, the source holds several entries; their conditions need not be identical. Equal values may be shown once. Read-outs that look alike come from different tables or passages of the source.

Columns and labels:
[1] = male, human, in vivo
[2] = 18F-ASEM radiometabolite analysis in mice
Procedure: (§1) Baboon arterial blood samples were withdrawn at 5, 10, 20, 30, 60, and 90 min after ^18-FASEM injection, and plasma was analyzed by HPLC. Male CD-1 mice (25-26 g) were injected via the lateral tail veins with 37 MBq of high-specific-activity ^18-FASEM. The mice were killed by cervical dislocation at 2 and 30 min after injection, and a terminal blood sample was obtained.

α7-nAChR [3] = molecular target: T1, α7-nAChR (Mus musculus, UniProt P49582); set-up: studied in mice, pigs, and non-human primates as potential α7-nAChR probes; host or cells: mouse brain (cortex) in vivo; species or system mice; settings: in vivo
[4] = type: binding; settings: read-out: human Ki α7-nAChR
α7-nAChR [5] = molecular target: T1, α7-nAChR; settings: in vivo
α7-nAChR [6] = molecular target: α7-nAChR (Homo sapiens, UniProt P36544); settings: in vivo
rat α7-nAChRs = rat α7-nAChRs (Rattus norvegicus, UniProt Q05941); type: cell-based
α7-nAChR [7] = molecular target: α7-nAChR (Rattus norvegicus, UniProt Q05941); assay: biochemical; type: binding
[8] = 18F-ASEM radiometabolite analysis in baboon; settings: baboons, 90 min after injection
Procedure: as §1

a7-nAChR = settings: in vivo
[9] = male, CD-1, mouse, in vivo, iv
Procedure: as §1

α7-nAChR [10] = molecular target: T1, α7-nAChR; set-up: The brains were rapidly removed and dissected on ice; tissue Charles River Laboratories; host or cells: brain of live male CD-1 mice; species or system CD-1 mice; settings: in vivo
α2β2-nAChR = α2β2-nAChR (Rattus norvegicus, UniProt P12389+P12390); assay: Heteromeric nAChR binding assay, transfected HEK293 membranes, [3H]epibatidine; settings: stably transfected HEK293 cells, [3H]epibatidine (0.5 nM)
α4β2-nAChR = α4β2-nAChR (Rattus norvegicus, UniProt P09483+P12390); assay: as above
α3β2-nAChR = α3β2-nAChR (Rattus norvegicus, UniProt P04757+P12390); assay: as above; settings: stably transfected HEK293 cells, [3H]epibatidine (0.5 nM)
Human 5-HT3 = molecular target: T2, Human 5-HT3 (Homo sapiens, UniProt P46098); assay: 5-HT3(h) binding assay, recombinant HEK293 cells, [3H]GR65630
T2 sequence (P46098 24-478): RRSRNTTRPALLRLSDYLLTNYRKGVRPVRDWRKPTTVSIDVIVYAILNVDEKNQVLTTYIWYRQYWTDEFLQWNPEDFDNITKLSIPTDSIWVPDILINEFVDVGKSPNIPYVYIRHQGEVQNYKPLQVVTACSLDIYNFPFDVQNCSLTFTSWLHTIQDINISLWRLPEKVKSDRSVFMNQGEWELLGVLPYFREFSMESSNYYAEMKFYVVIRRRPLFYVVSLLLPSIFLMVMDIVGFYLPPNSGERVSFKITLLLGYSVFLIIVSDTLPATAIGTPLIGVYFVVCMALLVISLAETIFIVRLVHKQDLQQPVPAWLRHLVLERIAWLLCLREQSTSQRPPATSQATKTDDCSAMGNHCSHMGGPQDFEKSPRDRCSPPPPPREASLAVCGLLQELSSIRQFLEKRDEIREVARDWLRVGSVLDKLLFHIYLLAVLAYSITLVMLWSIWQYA

rat a7-nAChR = rat a7-nAChR (Rattus norvegicus, UniProt Q05941); assay: biochemical; type: binding
α3β4-nAChR = molecular target: T3, α3β4-nAChR (Rattus norvegicus, UniProt P04757+P12392); assay: Heteromeric nAChR binding assay, transfected HEK293 membranes, [3H]epibatidine; settings: stably transfected HEK293 cells, [3H]epibatidine (0.5 nM)
T3 construct: expressed in transfected cells

α4β4-nAChR = molecular target: T4, α4β4-nAChR (Rattus norvegicus, UniProt P09483+P12392); assay: as above; settings: stably transfected HEK293 cells, [3H]epibatidine (0.5 nM)
T4 construct: expressed in transfected cells

α2β4-nAChR = molecular target: T5, α2β4-nAChR (Rattus norvegicus, UniProt P12389+P12392); assay: as above; settings: stably transfected HEK293 cells, [3H]epibatidine (0.5 nM)
T5 construct: expressed in transfected cells
T5 sequence (P12389 28-511): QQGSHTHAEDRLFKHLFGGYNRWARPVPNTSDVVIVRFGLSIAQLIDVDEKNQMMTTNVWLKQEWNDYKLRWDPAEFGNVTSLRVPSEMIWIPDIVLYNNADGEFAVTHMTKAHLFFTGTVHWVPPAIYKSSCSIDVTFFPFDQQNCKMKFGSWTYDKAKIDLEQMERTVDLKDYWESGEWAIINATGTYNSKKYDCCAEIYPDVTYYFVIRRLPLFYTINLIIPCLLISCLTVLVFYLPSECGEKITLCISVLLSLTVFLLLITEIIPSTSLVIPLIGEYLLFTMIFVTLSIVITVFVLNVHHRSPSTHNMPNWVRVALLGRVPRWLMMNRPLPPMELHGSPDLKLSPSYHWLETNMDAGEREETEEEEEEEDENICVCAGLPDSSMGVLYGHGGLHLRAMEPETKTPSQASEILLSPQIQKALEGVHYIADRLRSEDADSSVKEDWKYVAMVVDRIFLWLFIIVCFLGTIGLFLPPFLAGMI
T5 sequence (P12392 21-495): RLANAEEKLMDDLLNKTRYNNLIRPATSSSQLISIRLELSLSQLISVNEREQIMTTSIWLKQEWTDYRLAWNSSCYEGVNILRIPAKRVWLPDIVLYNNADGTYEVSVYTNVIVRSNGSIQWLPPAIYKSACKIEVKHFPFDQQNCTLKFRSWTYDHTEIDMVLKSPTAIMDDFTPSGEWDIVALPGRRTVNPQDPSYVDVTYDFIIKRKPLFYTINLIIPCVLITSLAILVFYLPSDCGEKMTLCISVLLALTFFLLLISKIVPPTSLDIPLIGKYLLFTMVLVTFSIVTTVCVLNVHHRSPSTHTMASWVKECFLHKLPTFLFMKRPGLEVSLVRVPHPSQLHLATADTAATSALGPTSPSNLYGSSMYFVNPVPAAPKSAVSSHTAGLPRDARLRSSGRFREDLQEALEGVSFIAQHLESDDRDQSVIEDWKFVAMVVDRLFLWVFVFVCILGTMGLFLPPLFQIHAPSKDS

T1 sequence (P49582 23-502): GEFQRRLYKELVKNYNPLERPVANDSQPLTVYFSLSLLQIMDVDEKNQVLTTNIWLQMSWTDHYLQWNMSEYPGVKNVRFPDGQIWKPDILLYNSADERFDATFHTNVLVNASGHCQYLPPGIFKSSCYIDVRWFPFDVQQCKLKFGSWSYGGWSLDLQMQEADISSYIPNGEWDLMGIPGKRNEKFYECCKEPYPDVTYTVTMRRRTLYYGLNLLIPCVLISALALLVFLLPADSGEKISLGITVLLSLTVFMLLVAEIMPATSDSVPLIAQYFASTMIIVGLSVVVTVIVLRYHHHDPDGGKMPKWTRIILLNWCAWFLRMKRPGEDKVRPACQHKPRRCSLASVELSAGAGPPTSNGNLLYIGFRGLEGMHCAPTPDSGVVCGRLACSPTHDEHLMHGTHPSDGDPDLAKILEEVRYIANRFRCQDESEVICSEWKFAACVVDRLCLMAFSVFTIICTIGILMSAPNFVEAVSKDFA
Chain of α7-nAChR (Rattus norvegicus, UniProt Q05941) (Q05941 23-502): as the sequence (P49582 23-502) above, with T402A counted along it
Chain of α7-nAChR (Homo sapiens, UniProt P36544) (P36544 23-502): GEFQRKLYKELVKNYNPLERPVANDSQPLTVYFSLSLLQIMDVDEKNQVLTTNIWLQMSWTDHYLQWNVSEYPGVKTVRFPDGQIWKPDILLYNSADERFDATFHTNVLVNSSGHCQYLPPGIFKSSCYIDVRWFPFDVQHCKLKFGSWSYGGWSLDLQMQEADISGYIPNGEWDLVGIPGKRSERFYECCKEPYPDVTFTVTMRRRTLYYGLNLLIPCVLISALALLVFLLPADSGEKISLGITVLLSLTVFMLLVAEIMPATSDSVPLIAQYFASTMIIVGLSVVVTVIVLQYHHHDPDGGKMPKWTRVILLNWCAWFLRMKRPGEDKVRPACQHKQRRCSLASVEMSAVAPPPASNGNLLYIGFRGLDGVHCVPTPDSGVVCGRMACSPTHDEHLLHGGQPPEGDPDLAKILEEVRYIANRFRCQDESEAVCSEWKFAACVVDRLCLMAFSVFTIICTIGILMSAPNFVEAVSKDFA
Chain of α4β2-nAChR (P09483 31-630): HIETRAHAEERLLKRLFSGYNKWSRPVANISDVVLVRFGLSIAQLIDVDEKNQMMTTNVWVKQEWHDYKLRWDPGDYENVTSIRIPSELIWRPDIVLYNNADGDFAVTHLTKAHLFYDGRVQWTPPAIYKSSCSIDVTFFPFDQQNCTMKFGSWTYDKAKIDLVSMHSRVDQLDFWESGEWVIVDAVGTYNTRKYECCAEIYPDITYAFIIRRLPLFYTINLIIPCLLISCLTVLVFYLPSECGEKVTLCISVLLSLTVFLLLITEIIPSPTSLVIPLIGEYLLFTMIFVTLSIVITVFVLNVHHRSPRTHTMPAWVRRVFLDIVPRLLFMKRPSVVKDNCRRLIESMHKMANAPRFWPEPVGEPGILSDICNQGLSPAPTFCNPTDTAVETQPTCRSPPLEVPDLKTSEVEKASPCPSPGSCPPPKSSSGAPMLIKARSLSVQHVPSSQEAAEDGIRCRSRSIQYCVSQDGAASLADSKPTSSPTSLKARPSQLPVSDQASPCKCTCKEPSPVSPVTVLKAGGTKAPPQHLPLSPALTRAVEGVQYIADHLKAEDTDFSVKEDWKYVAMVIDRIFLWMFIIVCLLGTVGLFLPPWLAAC
Chain of α4β2-nAChR (P12390 25-500): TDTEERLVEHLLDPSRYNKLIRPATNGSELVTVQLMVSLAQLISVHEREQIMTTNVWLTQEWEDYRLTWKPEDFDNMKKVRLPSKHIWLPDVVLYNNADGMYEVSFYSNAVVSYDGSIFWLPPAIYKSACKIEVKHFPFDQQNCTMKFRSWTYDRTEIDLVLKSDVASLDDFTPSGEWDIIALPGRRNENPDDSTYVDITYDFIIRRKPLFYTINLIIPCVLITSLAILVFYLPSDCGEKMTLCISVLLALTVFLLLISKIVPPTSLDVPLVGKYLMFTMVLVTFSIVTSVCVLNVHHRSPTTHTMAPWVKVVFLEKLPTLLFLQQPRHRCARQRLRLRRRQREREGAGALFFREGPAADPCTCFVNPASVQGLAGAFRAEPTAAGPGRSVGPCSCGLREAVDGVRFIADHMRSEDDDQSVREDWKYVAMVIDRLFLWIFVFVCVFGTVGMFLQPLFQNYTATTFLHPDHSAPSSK
Chain of rat α7-nAChRs (Q05941 23-502): as the sequence (P49582 23-502) above, with T402A counted along it
Chain of α2β2-nAChR (P12389 28-511): as the sequence (P12389 28-511) above
Chain of α2β2-nAChR (P12390 25-500): as the sequence (P12390 25-500) above
T4 sequence (P09483 31-630): as the sequence (P09483 31-630) above
T4 sequence (P12392 21-495): as the sequence (P12392 21-495) above
Chain of α3β2-nAChR (P04757 26-499): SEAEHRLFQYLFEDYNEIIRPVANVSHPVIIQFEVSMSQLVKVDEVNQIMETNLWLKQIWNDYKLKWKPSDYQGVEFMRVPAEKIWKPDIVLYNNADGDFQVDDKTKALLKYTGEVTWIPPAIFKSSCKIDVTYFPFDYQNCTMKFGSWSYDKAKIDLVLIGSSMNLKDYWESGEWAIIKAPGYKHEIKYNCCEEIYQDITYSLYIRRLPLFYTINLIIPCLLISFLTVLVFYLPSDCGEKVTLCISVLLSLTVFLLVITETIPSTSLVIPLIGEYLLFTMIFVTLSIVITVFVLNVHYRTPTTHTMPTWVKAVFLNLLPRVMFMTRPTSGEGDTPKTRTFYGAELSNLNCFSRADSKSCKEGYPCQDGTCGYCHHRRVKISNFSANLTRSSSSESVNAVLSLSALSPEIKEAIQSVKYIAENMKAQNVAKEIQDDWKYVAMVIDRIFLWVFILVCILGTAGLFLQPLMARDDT
Chain of α3β2-nAChR (P12390 25-500): as the sequence (P12390 25-500) above
T3 sequence (P04757 26-499): as the sequence (P04757 26-499) above
T3 sequence (P12392 21-495): as the sequence (P12392 21-495) above
Chain of rat a7-nAChR (Q05941 23-502): as the sequence (P49582 23-502) above, with T402A counted along it

## O=S1(=O)c2cc(N3CCN4CCC3CC4)ccc2-c2cccc([18F])c21 [[^18F]7a]
[1]
  time of plasma TAC peak: ≤ 1 min
[1]; 0.5 h
  parent metabolized: 52.6±12.9%
[1]; 1.5 h
  parent metabolized: 83.5±9.7%
[2]; after intravenous administration
  unchanged parent in the mouse blood: approximately 1%
[2]; mice, 30 min after injection
  combined radiometabolites in the plasma: approximately 99%
α7-nAChR [3]
  regional brain uptake in mutant DISC1 versus control mice: significantly lower in all regions studied
[4]
  Ki: 0.3 nM
α7-nAChR [5]
  baseline-to-blockade ratio: 13
  specific binding value: 94%
α7-nAChR [6]
  binding potential BPND: ~1
  test-retest variability (TRV): 10.8±5.1%
α7-nAChR [6]; male, human
  VT, lower regions: G15 ml/ml
  VT, relatively high regions: 920 ml/ml
  peak brain uptake: 400 %SUV
  time of peak brain uptake: 10 to 15 min
Rat α7-nAChRs
  acetylcholine-induced whole-cell current restored, of baseline: 60%
α7-nAChR [7]; Ki α7-nAChR (text)
  Ki: 0.4 nM
[8]
  combined radiometabolites in the plasma: 70%
a7-nAChR
  Regional BPND ([VT/VND]−1): 3.9 to 6.6 and 3.9-6.6
  nonspecific binding: less than 30%
  specific binding: 80%-90%
a7-nAChR; male, baboon (Papio anubis)
  brain uptake: 500 % standardized uptake value [SUV]
  lowest observed VT: 14 mL/mL
[9]
  unchanged parent in the mouse brain: at least 95%
α7-nAChR [10]
  Approximate BPND, Coll: 8.0 and 8.0 ± 1.6
  Approximate BPND, Ctx: 5.3 and 5.3 ± 1.2
  Approximate BPND, Hipp: 5.5 and 5.5 ± 1.7
  BPND in control mice: 8 and 5.3-8.0
α7-nAChR [10]; iv
  ratios of tissues to cerebellum: 10

## O=S1(=O)c2cc(N3CCN4CCC3CC4)ccc2-c2cccc(F)c21 [Compound 7a, 3-(1,4-Diazabicyclo[3.2.2]nonan-4-yl)-6-fluorodibenzo[b,d]thiophene 5,5-Dioxide]
α2β2-nAChR
  Ki: > 10000 nM
α4β2-nAChR
  selectivity α7/α4β2: 1370
α4β2-nAChR; stably transfected HEK293 cells, [3H]epibatidine (0.5 nM)
  Ki: 562 nM
α3β2-nAChR
  Ki: 1000 nM
Human 5-HT3
  selectivity α7/5HT3: 561
Human 5-HT3; Human 5-HT3 recombinant/HEK293 cells, [3H]GR65630 (0.35 nM)
  Ki: 230 nM
Rat a7-nAChR
  Ki: 0.3 nM
α7-nAChR [5]
  behavioral / locomotor activity changes: Neither behavioral nor locomotor activity changes were observed
Rat α7-nAChRs
  block of acetylcholine activation: nearly completely blocked activation by acetylcholine
α7-nAChR [7]; read-out: Ki α7-nAChR
  Ki: 0.37 nM and 0.45 nM
α7-nAChR [7]; read-out: Ki α7-nAChR (text)
  Ki: 0.4 nM
α3β4-nAChR
  Ki: 709 nM
α4β4-nAChR
  Ki: 1000 nM
α2β4-nAChR
  Ki: 4000 nM
